Each compound was assayed against CaMKIIδ (Homo sapiens (Human), UniProt Q13557) (assay: In vitro CaMKIIδ activity assay (coupled assay measuring ADP released, peptide substrate AC3)). Settings: full length C-terminal His/Gln tagged CaMKIIδ construct, 16 nM enzyme, 25° C., duplicate.
Format: biochemical
Procedure: An exemplary procedure for the in vitro CaMKIIδ inhibition assay, which can be used to determine the inhibitory action of compounds of the invention toward CaMKII, follows. The procedure is taken from Chao L H, et al., (2010) Nat Struct Mol Biol. 17(3): 264-272, which is incorporated herein by reference in its entirety.
The inhibition of CaMKII activity was evaluated using a coupled assay measuring ADP released following ATP hydrolysis and phosphor-transfer to the peptide substrate AC3 (KKALHRQETVDAL; SEQ ID NO: 1) (1). A full length, C-terminal His/Gln tagged CaMKIIδ construct was used (sequence in Table 3 below).
Compounds were added in 5 uL volume to wells in UV transparent 96-well plates (½ area well size). The final compound concentrations tested ranged from 0.5 nM to 10 uM). Assays were performed in duplicate. CaMKIIδ is added to at a final concentration of 16 nM to a mixture containing 100 mM Tris (pH 7.5), 150 mM KCl, 0.27 mM EGTA, 1.3 mM PEP, 0.2 mg/ml AC3, 6.9% (v/v) PK/LDH mixture (Sigma P0294), 0.38 mM NADH and kept on ice. 72 uL of the enzyme mixture was added to the wells containing compounds and the plate was shaken briefly and kept on ice. The assay was initiated by adding 23 uL of a mixture containing 100 mM Tris (pH 7.5), 150 mM KCl, 1.7 mM CaCl2, 48 mM MgCl2, 0.35 mM ATP and 6.7 ug/mL calmodulin. The rate of ADP released was measured as the rate of absorbance decrease at […] at 25° C. and plotted against the log of the compound concentration (FIG. 1). IC50 data were fitted using GraphPad Prism software.

Structure (SMILES)	IC50 [nM]
c1cc(-c2ccnc3[nH]c4ccccc4c23)nc(N2CCNCC2)c1 [Compound 9j]	≤ 50
C(=C\c1ccnc2[nH]c3ccccc3c12)/CN1CCNCC1 [Compound 9h]	≥ 1000
Cc1nn(C2CCNCC2)cc1-c1ccnc2[nH]c3ccccc3c12 [Compound 9l]	≥ 1000
c1ccc2c(c1)[nH]c1nccc(-c3cnn(C4CCNCC4)c3)c12 [Compound 9m]	≥ 1000
NCCNc1cccc(-c2ccnc3[nH]c4ccc(Cl)cc4c23)c1 [Compound I-14, N1-(3-(6-chloro-9H-pyrido[2,3-b]indol-4-yl)phenyl)ethane-1,2-diamine]	≤ 50
COc1ccc2c(c1)[nH]c1nccc(-c3cccc(NCCN)c3)c12 [Compound I-12, N1-(3-(7-methoxy-9H-pyrido[2,3-b]indol-4-yl)phenyl)ethane-1,2-diamine]	≤ 50
c1ccc2c(c1)[nH]c1nccc(-c3cncc(N4CCNCC4)c3)c12 [Compound 9a]	250 to 1000
c1ccc2c(c1)[nH]c1nccc(-c3cc[nH]c3)c12 [Compound 8q]	250 to 1000
c1ccc2c(c1)[nH]c1nccc(-c3cnc(N4CCNCC4)s3)c12 [Compound 9k]	≥ 1000
NCc1cccc(-c2ccnc3[nH]c4ccccc4c23)c1 [Compound I-3]	≥ 1000
NCCNc1cccc(-c2ccnc3[nH]c4ccccc4c23)c1 [Compound I-7, N1-(3-(9H-pyrido[2,3-b]indol-4-yl)phenyl)ethane-1,2-diamine]	≤ 50
Cc1ccc2[nH]c3nccc(-c4cccc(NCCN)c4)c3c2c1 [Compound I-13, N1-(3-(6-methyl-9H-pyrido[2,3-b]indol-4-yl)phenyl)ethane-1,2-diamine]	≤ 50
c1ccc2c(c1)[nH]c1nccc(-n3cc(C4CCNCC4)nn3)c12 [Compound 9e]	≥ 1000
C(=C/c1ccnc2[nH]c3ccccc3c12)/CN1CCNCC1 [Compound 9o]	≥ 1000
C(#Cc1ccnc2[nH]c3ccccc3c12)CN1CCNCC1 [Compound 9n]	250 to 1000
Clc1ccncc1-c1ccnc2[nH]c3ccccc3c12 [Compound 8p]	≥ 1000
NCCCOc1cccc(-c2ccnc3[nH]c4ccccc4c23)c1 [Compound I-10, 3-(3-(9H-pyrido[2,3-b]indol-4-yl)phenoxy)propan-1-amine]	≤ 50
NCCOc1cccc(-c2ccnc3[nH]c4ccccc4c23)c1 [Compound I-9, 2-(3-(9H-pyrido[2,3-b]indol-4-yl)phenoxy)ethanamine]	≤ 50
c1cc(-c2ccnc3[nH]c4ccccc4c23)cc(-n2ccnc2)c1 [Compound I-2, 4-(3-(1H-imidazol-1-yl)phenyl)-9H-pyrido[2,3-b]indole]	≥ 1000
Clc1cnccc1-c1ccnc2[nH]c3ccccc3c12 [Compound 8r]	≥ 1000

Reference: patent publication US10759792B2, “CaMKII inhibitors and uses thereof” (The Johns Hopkins University, priority 2014, dated 2020)
